{
  "source": "patent US20170189376A1",
  "about": "“BUTYROYLOXYMETHYL DIETHYL PHOSPHATE COMPOUNDS AND USES THEREOF” (MOR RESEARCH APPLICATIONS LTD., priority 2016, published 2017)",
  "key": {"[1]": {"system": "HDAC1", "assay": "Western blot of HDAC1 protein expression in MF/SS cell lines", "assay_type": "cell-based, human", "conditions": "MyLa and Hut78, SAHA 10 μM or AN-7 300 μM"}, "[2]": {"system": "caspase 3, PARP, P21 and Bax in MF/SS cell lines", "assay": "Western blot of pro-apoptotic proteins in MF/SS cell lines", "assay_type": "cell-based, human", "conditions": "MyLa and Hut78, SAHA 10 μM or AN-7 300 μM", "description": "However, there was a stronger signal in response to SAHA."}, "[3]": {"system": "Acetylated H3", "assay": "Western blot of acetylated H3 in nuclear lysate of MF/SS cell lines", "conditions": "MyLa and Hut78, SAHA 10 μM or AN-7 300 μM", "quoted_text": "Cells (5×10^6) were suspended in 300 μL of cytoplasmic buffer (HEPES 10 mM, KCl 10 mM, EDTA 1 mM, EGTA 1 mM, DTT 1 mM). After 20 min of incubation on ice, the mixture was passed 5 times through a 25-G syringe and then centrifuged briefly to obtain the cytoplasmic supernatant.\nThe nuclear pellet was suspended in 40-60 μL of nuclear buffer (cytoplasmic buffer+10% glycerol), incubated with shaking at 4° C. for 15 min, and centrifuged. The supernatant was collected as a nuclear fraction.\nCell extracts were separated by SDS-polyacrylamide gel electrophoresis (SDS-PAGE), transferred to a nitrocellulose membrane, and subjected to immunoblot with primary and secondary antibodies, as listed in table 1."}, "[4]": {"system": "MyLa cells", "assay": "cells", "assay_type": "cell-based, human", "conditions": "trypan blue, column group printed 'AN-7', MyLa"}, "[5]": {"system": "Hut78 cells", "assay_type": "cell-based, homo sapiens", "conditions": "trypan blue; for IC50: column group printed 'SAHA'"}, "[6]": {"system": "NBS1, Rad51, Mre11, DNA-PK, Ku70 in MyLa cells", "assay": "Western blot of DSB repair proteins, MyLa cells", "assay_type": "cell-based, human", "conditions": "24 and 48 h post treatment", "protocol": "(§1) Whole cells extract—Cells were suspended in lysis buffer (Tris-HCl 50 mM, NaCl 150 mM, NP-40 0.5%), incubated for lh on ice, centrifuged and the supernatant was collected. Protease and Phosphatase inhibitors were added to all buffers at a 1:100 dilutions. […] Bands were visualized by Odyssey Infrared Imaging System and the bands intense were normalized to actin.\n(§2) To address whether AN-7 interfere in DSBs repair by regulating the expression of DSBs repair proteins, Immunoblot was applied for those proteins. MyLa and Hut78 cells were treated as previously described and subjected to western blot of DSBs repair proteins."}, "[7]": {"system": "p-KAP1, γH2AX in Hut78 cells", "assay": "Western blot of p-KAP1 and γH2AX, Hut78 cells", "assay_type": "cell-based, homo sapiens", "conditions": "0.5 mM AN-7 2 h, 0.5 μM Dox 1 h, or AN-7 1 h followed with Dox 1 h", "protocol": "(§3) Cell fraction—3×10^6cells were suspended in 100 μl hypotonic buffer (HEPES 10 mM, KCl 5 mM, MgCl2 1.5 mM, DTT 1 mM, NP-40 1%), incubated for 15 min in ice, centrifuged and the supernatant fraction was subjected to western blot of pKAP1 and actin. The sediment was washed once with hypotonic buffer followed by suspension in 100 μl of hypertonic buffer (HEPES 10 mM, NaCl 500 mM, MgCl2 1.5 mM, DTT 1 mM, NP-40 1%), incubated for 15 min in ice, centrifuged, supernatant was removed and the sediment was boiled, vortexed for 10 min at 95° C. with sample buffer ×3 for 3 times and subjected to western blot of γH2AX.\nas §1\n(§4) Next, cells were fractionated and fraction lysate were subjected to western blot of phosphorylated KAP1 (p-KAP1), γH2AX and actin."}, "[8]": {"system": "Hut78 cells", "assay": "MTT-based viability assay, Hut78 cells", "quoted_text": "(§5) MyLa cells (10^4), Hut78 cells (5×10^3), SPBL and NPBL (10^5) were seeded in triplicate in 96-well plates. The PBL were activated with PHA 40 μg/10^6 cell for 24 h before the experiment. […] The cells were then placed in a humidified incubator for 72 h. […] The MTT reagent was added to a final concentration of 0.5 mg/mL, and the cells were incubated for an additional 4 h. Thereafter, 0.1N HCl in isopropanol was added, and cell viability was determined using an ELISA reader (PowerWaveX, BioTek, Winooski, Vt., USA) at a 570 nm wavelength with background subtraction at 630-690 nM.\n(§6) Viability and apoptosis curves were based on the averages of at least 3 independent experiments. The standard error (SE) was calculated for each group as follows: SE=standard deviation/√n, where n is number of values in the group. […] Significant differences in selectivity among groups were analyzed by comparing the IC50 values using two-tailed unpaired t-test using Excel or by comparing the differential effects for all the dose response titrations using ANOVA with repeated measures."}, "[9]": {"system": "NBS1, Rad51, Mre11, DNA-PK, Ku70 in Hut78 cells", "assay": "Western blot of DSB repair proteins, Hut78 cells", "assay_type": "cell-based, homo sapiens", "conditions": "Hut78, 18 and 24 h post treatment", "protocol": "as §1, §2"}, "[10]": {"system": "SPBL", "assay": "FACS annexin V/PI apoptosis ex vivo, PBL of SS patients", "assay_type": "cell-based, human", "conditions": "PBL from 2 SS patients, SAHA 4 μM or AN-7 200 μM, 48 h", "description": "The cells were then stained with annexin V and PI and analysed by FACS."}, "[11]": {"system": "Sezary syndrome Peripheral blood lymphocytes SPBL", "assay": "MTT-based viability assay, Sezary PBL (SPBL)", "conditions": "for IC50: Sezary PBL", "quoted_text": "(§7) Peripheral blood was diluted 1:3 in sterile phosphate-buffered saline (PBS). Lymphoprep was added in the same blood volume with a Pasteur pipette, and the sample was centrifuged. PBL were collected from the white median interphase, rinsed twice with PBS, and suspended in RPMI medium with 10 mM HEPES to 2×10^6 cells/mL.\nas §5, §6\n(§8) NPBL were treated at same molar ratio as SPBL."}, "[12]": {"system": "MyLa cells", "assay": "MTT-based viability assay, MyLa cells", "quoted_text": "as §5, §6"}, "[13]": {"system": "U2OS GFP-reporter cells", "assay": "HR activity assay, U2OS GFP-reporter cells", "assay_type": "cell-based", "conditions": "1 mM AN-7 for 48 h", "protocol": "U2OS cells with the linearized HRsub reporter (Puget et al. DNA Repair 4 (2005) 149-161) were transfected with: SceI-expression vector pCBASce; pCBA vector without Sce-I; and GFP control vector, each one separately with FuGENE 6 transfection reagent (Promega). 24 h later 2×10̂5 cells/ml were seeded in 35 mm plates and 6 h later were treated with 1 mM AN-7 for 48 hr. Cells were washed with PBS then harvested with Trypsin solution, neutralized with PBS+10% FBS, centrifuged in 1200 rpm for 10 min, suspended with PBS+10% FBS and GFP-positive cells were quantified by flow cytometry analysis. Cells excitation was done with 488nm laser; the reading of FL1 values was done in 530 nm. Percent of cells with repaired DSB induced by Sce-I via HR are presented as percent of GFP positive cells which are calculated as follow: (%GFP of cells expressing Sce-I pCBASce)−(%GFP of cells expressing empty pCBASce)/(%GFP of cells expressing GFP control vector).\nThe role of AN-7 in suppressing directly the repair of DSBs, was verified. To this end, one of the machinery for repairing DSBs, the HR repair machinery, was tested. […] The U2OS-GFP cells were transfected with I-SceI plasmid for 24 hours, treated then with AN-7 for another 48 h and then analyzed for GFP expression in FACS analysis. […]"}, "[14]": {"system": "p-KAP1, γH2AX in MyLa cells", "assay": "Western blot of p-KAP1 and γH2AX, MyLa cells", "assay_type": "cell-based, human", "conditions": "1 mM AN-7 2 h, 1 μM Dox 1 h, or AN-7 1 h followed with Dox 1 h", "protocol": "as §3, §1, §4"}, "[15]": {"system": "MyLa cells", "assay": "FACS analysis with annexin V and PI staining (apoptosis), MyLa cells", "quoted_text": "(§9) The cells (2.5×10^6 cells/mL) were washed in PBS and binding buffer and were resuspended in binding buffer, and of fluorescein isothiocyanate-conjugated annexin V (5 μL) was added to a 100 μL cell suspension for 10-15 min. Incubation was performed at room temperature under light-protected conditions. The cells were then washed in binding buffer and were resuspended in the binding buffer and propidium iodide (PI) (5 μL) was added. The samples were analyzed by flow cytometry (FACS Calibur 4.1.6, Becton Dickinson): fluorescein-labeled annexin V at a 530 nm wavelength, and PI at a 585 nm wavelength. The percentage of cells was calculated by their distribution in a fluorescence dot plot generated with FCS Express 4 software (De Novo Software, Los Angeles, Calif., USA). Early (annexin V-positive) and late (annexin V+PI-positive) apoptotic cells were summed to yield the total number of apoptotic cells."}, "[16]": {"system": "NPBL", "assay": "MTT-based viability assay, normal PBL (NPBL)", "conditions": "for IC50: Normal PBL", "quoted_text": "as §7, §5, §6, §8"}, "[17]": {"system": "Hut78 cells", "assay": "FACS analysis with annexin V and PI staining (apoptosis), Hut78 cells", "quoted_text": "as §9"}, "[18]": {"conditions": "long exposure 24 h, read-out: IC50 Long exposure"}, "[19]": {"conditions": "read-out: IC50 single treatment (HDACI), MTT 72 h, Table 4"}},
  "note": "Read-outs that look alike come from different tables or passages of the source.",
  "data": [
    {"smiles": "CCCC(=O)OCOP(=O)(OCC)OCC", "note": "[AN-7, Butyroyloxymethyl diethyl phosphate]", "values": [
      {"measurement": "HDAC1 expression level", "setting": "[1]", "value": "downregulated"},
      {"measurement": "expression of pro-apoptotic proteins (western blot)", "setting": "[2]", "value": "cleavage of caspase 3 and poly ADP-ribose polymerase (PARP) and the production of P21 and Bax"},
      {"measurement": "expression of acetylated H3", "setting": "[3]", "value": "induced"},
      {"measurement": "IC50", "setting": "[4]; 4 h then washout and 44 h, read-out: IC50 Short exposure", "value": "141 ± 9.8", "unit": "µM"},
      {"measurement": "IC50", "setting": "[4]; [18]", "value": "159 ± 34.8", "unit": "µM"},
      {"measurement": "IC50 short exposure/IC50 long exposure", "setting": "[5]", "value": 1.3},
      {"measurement": "IC50", "setting": "[5]; 4 h then washout and 20 h, read-out: IC50 Short exposure", "value": "88 ± 4.6", "unit": "µM"},
      {"measurement": "IC50", "setting": "[5]; [18]", "value": "67 ± 2.5", "unit": "µM"},
      {"measurement": "expression of NBS1, Mre11, Rad51 and DNA-PK", "setting": "[6]", "value": "did not affect the expression of DSB repair proteins"},
      {"measurement": "induction and persistence of p-KAP1 and γH2AX", "setting": "[7]", "value": "did not affect the expression of p-KAP1 and γH2AX"},
      {"measurement": "IC50", "setting": "[8]; Hut78 cells, MTT, 72 h", "value": "59 ± 4.3", "unit": "µM"},
      {"measurement": "selectivity vs NPBL by dose-response titration", "setting": "[8]; Hut78 vs NPBL, ANOVA with repeated measures", "value": "significantly selective"},
      {"measurement": "Selectivity index (SI)", "setting": "[8]; SI=IC50 NPBL/IC50 Hut78", "value": 3.4},
      {"measurement": "IC50", "setting": "[8]; read-out: IC50 single treatment (HDACI), Hut78, MTT 72 h, Table 4", "value": "59 ± 4.3", "unit": "µM"},
      {"measurement": "expression of NBS1 and DNA-PK", "setting": "[9]", "value": "did not affect the expression of DSB repair proteins"},
      {"measurement": "apoptosis induction in SPBL ex vivo", "setting": "[10]", "value": "directed more SPBL cells into apoptotic death than SAHA"},
      {"measurement": "Selectivity index (SI)", "setting": "[11]; SI=IC50 NPBL/IC50 Sezary PBL", "value": 3.56},
      {"measurement": "selectivity of induced death vs NPBL", "setting": "[11]; SPBL vs NPBL, by IC50 values", "value": "selective death"},
      {"measurement": "IC50", "setting": "[11]; MTT, 72 h", "value": 128, "unit": "µM"},
      {"measurement": "lethality of high doses to SPBL", "setting": "[11]; high doses, MTT 72 h", "value": "more lethal to SPBL than high doses of SAHA"},
      {"measurement": "IC50", "setting": "[11]; [19]", "value": "128 ± 5.2", "unit": "µM"},
      {"measurement": "IC50", "setting": "[12]; MyLa cells, MTT, 72 h", "value": "120 ± 5.3", "unit": "µM"},
      {"measurement": "selectivity vs NPBL by dose-response titration", "setting": "[12]; MyLa vs NPBL, ANOVA with repeated measures", "value": "significantly selective"},
      {"measurement": "Selectivity index (SI)", "setting": "[12]; SI=IC50 NPBL/IC50 MyLa", "value": 1.7},
      {"measurement": "IC50", "setting": "[12]; read-out: IC50 single treatment (HDACI), MyLa, MTT 72 h, Table 4", "value": "81.7 ± 4.4", "unit": "µM"},
      {"measurement": "proportion of cells expressing GFP (frequency of HR repair of I-SceI-induced DSBs)", "setting": "[13]", "value": "significantly reduce"},
      {"measurement": "induction and clearance of p-KAP1", "setting": "[14]", "value": "did not affect the expression of p-KAP1 and γH2AX"},
      {"measurement": "induction and clearance of γH2AX", "setting": "[14]", "value": "did not affect the expression of p-KAP1 and γH2AX"},
      {"measurement": "apoptosis", "setting": "[15]; SAHA 10 μM or AN-7 300 μM", "value": "about 60%"},
      {"measurement": "apoptosis after short exposure compared to long exposure (fold less)", "setting": "[15]; annexin V + PI", "value": "no significant difference"},
      {"measurement": "IC50", "setting": "[16]; MTT, 72 h", "value": "200 ± 2.8", "unit": "µM"},
      {"measurement": "NPBL survival at high doses", "setting": "[16]; high doses lethal to Hut78 and MyLa cells", "value": 50, "unit": "%"},
      {"measurement": "IC50", "setting": "[16]; [19]", "value": "191 ± 26.1", "unit": "µM"},
      {"measurement": "apoptosis after short exposure compared to long exposure (fold less)", "setting": "[17]; Hut78, annexin V + PI", "value": "no significant difference"},
      {"measurement": "apoptosis", "setting": "[17]; Hut78, SAHA 10 μM or AN-7 300 μM", "value": "about 60%"}
    ]}
  ]
}
